Values of other authors, collected in patent US5026825A, “Intranasal calcitonin formulations” (Rhone-Poulenc Rorer Pharmaceuticals Inc., priority 1988, dated 1991).
Ends that are not written are not given here.

Conditions: calcitonin used in Example 6; USP 4,391,747

| Substance | potency |
| --- | --- |
| Des asparagine-3-Calcitonins | 4,300 MRC units/mg |

Same assay, conditions: calcitonins used in Examples 7-10; from cited US patents

| Substance | potency |
| --- | --- |
| 1A-endo-glycine-calcitonin | 4,650 IU/mg |
| D-Arginine^24 Calcitonins | 5,000 IU/mg |
| Glycine^8 -D-Arginine^24 Calcitonins | 3,500 IU/mg |
| [16-Alanine] Calcitonins [16-alanine calcitonin] | 6,200 IU/mg |

Same assay, conditions: in vivo

| Substance | potency (level of hypocalcemic activity) |
| --- | --- |
| beef calcitonin: natural calcitonin of beef (bovine) (CSNLSTCVLSAYWKDLNNYHRFSGMGFGPETP; ends and bridges not checked; cysteine pairing not given here; UniProt P01260 1-32, looked up) | 100 to 200 MRC U/mg peptide |
| chicken calcitonin (CASLSTCVLGKLSQELHKLQTYPRTDVGAGTP; ends and bridges not checked; cysteine pairing not given here; UniProt P07660 82-113, looked up) [natural calcitonin of chicken] | 4,000 to 6,000 MCR (Medical Research Council) U/mg peptide |
| eel calcitonin | 2,000 to 4,000 MRC U/mg peptide |
| hog calcitonin: natural calcitonin of hog (porcine) (CSNLSTCVLSAYWRNLNNFHRFSGMGFGPETP; ends and bridges not checked; cysteine pairing not given here; UniProt P01259 1-32, looked up) | 100 to 200 MRC U/mg peptide |
| man calcitonin: natural calcitonin of man (human) | 100 to 200 MRC U/mg peptide |
| rat calcitonin: natural calcitonin of rat (CGNLSTCMLGTYTQDLNKFHTFPQTSIGVGAP; ends and bridges not checked; cysteine pairing not given here; UniProt P01257 85-116, looked up) | 400 MRC U/mg |
